Results reported in a melting point compilation (Tetko et al.; mined from patent text by program, amines drawn as free bases though some values may be those of a salt).

`COc1ncc(NC(N)=S)c(OC)n1` gave a melting point of 175 °C.
With `CCC(C)NC(C(=O)O)C(C)C` (stereo unspecified) the melting point was > 300 °C.
With `Cc1cc[nH]c(=O)c1NC(=O)c1ccccc1` the melting point was 264 to 265 °C.
In the case of `O=C1CCNC(=O)C1C(=O)c1ccc(C(F)(F)F)cc1` (stereo unspecified), the melting point was 197 to 200 °C.
For `O=C(NCCCCCCOC(=O)N1CCC2(CCCC2)CC1)OC1CCN(C(=O)Oc2ccc([N+](=O)[O-])cc2)CC1`, the melting point was 113 to 114 °C.
Molecule `CNCc1ccc(Cc2nc3ccccc3[nH]2)cc1` has a melting point of 157 to 160 °C.
Molecule `COCCc1cc(O)ccc1N` has a melting point of 82 °C.
Molecule `CCOC(=O)c1cnc(-c2cc([N+](=O)[O-])ccc2OCC)[nH]c1=O` has a melting point of 222 to 224 °C.
In the case of `CC(O)c1cc2c(=O)n(NS(C)(=O)=O)c(=O)[nH]c2cc1C(F)(F)F` (stereo unspecified), the melting point was 263 to 268 °C.
Molecule `CC[C@@H]1O[C@](/C=C/C2CC2)(C(F)(F)F)c2cc(F)ccc2NC1=O` (relative stereo) has a melting point of 148 to 149 °C.
In the case of `O=c1cc(C(F)(F)F)[nH]c(=O)n1Cc1cc(Cl)cc(Cl)c1Cl`, the melting point was 199 to 202 °C.
In the case of `CCOC(=O)/C=C/c1cc(OCc2ccccc2)ccc1OCC`, the melting point was 124 to 125 °C.
In the case of `Cc1sc(Nc2cccc(I)n2)nc1-c1cn[nH]c1`, the melting point was > 260 °C.
`CC(=O)Nc1ccc(Sc2cccnc2)cc1` showed a melting point of 138 to 140 °C.
`COCCOc1cc(Oc2ccc(C(F)(F)F)cn2)ccc1CCCOc1cc(CCC(=O)O)n(C)n1` gave a melting point of 110 °C.
In the case of `COC(=O)Cc1ccc2occ(-c3ccc(Br)cc3)c2c1`, the melting point was 84 to 86 °C.
Molecule `O=C1c2cccc3cc4ccccc4c(c23)C(=O)N1CCN1CCCN(CCN2C(=O)c3cccc4cc5ccccc5c(c34)C2=O)C1` has a melting point of 222 °C.
For `COc1c(C2CCN(CCCCNC(=O)c3ccc(-c4ccc(C#N)s4)cc3)CC2)ccc2c1CCCC2`, the melting point was 182 to 184 °C.
For `CN(C(=O)C(F)(F)F)c1ccc2[nH]ncc2c1`, the melting point was 172 to 174 °C.
In the case of `CN(C1=CC(=O)C(=O)c2ccccc21)C1CCCCC1`, the melting point was 168 to 170 °C.
`CCOC(=O)c1sc(SC)c(C(=O)CC(C)=O)c1C` showed a melting point of 51 to 52 °C.
Work on `O=C(CO)c1cc(O)c(O)c([N+](=O)[O-])c1` yielded a melting point of 208 to 210 °C.
In the case of `Cc1cccc2c(-c3ccc(C(F)(F)F)cc3)onc12`, the melting point was 118 to 119 °C.
With `CCOC(=O)c1cn(Cc2ccccc2)nc1OCc1ccc(OCc2nc(-c3ccco3)oc2C)nc1` the melting point was 140 to 141 °C.
`OCC1CC(F)C(n2cnc3c(Cl)ncnc32)O1` (stereo unspecified) showed a melting point of 157 to 158 °C.
With `COc1cc(OC)c([N+](=O)[O-])cc1C(=O)CCCCCl` the melting point was 93 to 95 °C.
With `CCc1ncnc2ccc(CCc3cc(OC)ccc3OC)cc12` the melting point was 74 °C.
`CC(C)(COc1ncc(C(F)(F)F)cc1Cl)C(=O)C(Oc1ccc(F)cc1)n1cncn1` (stereo unspecified) showed a melting point of 104 to 106 °C.
With `CC(=O)Oc1ccc(CCC(=O)Nc2cc(C)c(O)c(C)c2)cc1OC(C)=O` the melting point was 118 to 119 °C.
In the case of `CSc1ccc(F)c(C#N)c1`, the melting point was 61.7 to 62.7 °C.
`CN(c1cccc2cc(C3=NCC(C)(CN4CCOCC4)S3)[nH]c12)S(=O)(=O)c1cccs1` (stereo unspecified) gave a melting point of 146 to 147 °C.
In the case of `COC(=O)c1cc(OC)c(C(=O)O)cc1OC`, the melting point was 123 to 124 °C.
For `CCc1nc2c(C)cc(C)nc2n1Cc1ccc2oc(-c3ccccc3NS(=O)(=O)C(F)(F)F)c(Br)c2c1`, the melting point was 90 to 95 °C.
`O=[N+]([O-])c1ccc2oc(-c3sccc3CN3CCOCC3)nc2c1` showed a melting point of 143 to 145 °C.
Molecule `COc1cc(C(=O)NS(=O)(=O)c2ccccc2C)ccc1Cc1cccc2ccc(CCCC(=O)N3CCOCC3)cc12` has a melting point of 100 to 102 °C.
With `CC(=O)N1CCN(c2nc(Nc3ccc(F)cc3F)c(C(=O)O)cc2F)CC1` the melting point was 243 to 244 °C.
In the case of `Cc1nc(Cl)c2c(c1O)COC2CCc1ccccc1` (stereo unspecified), the melting point was 193 °C.
`Nc1nc(N)nc(-c2ccc(NS(=O)(=O)c3ccccc3)cc2)n1` gave a melting point of 197 to 199 °C.
`CCCCC(=O)c1c(-c2ccc3c(Br)c(OCC(=O)O)ccc3c2)sc2ccccc12` showed a melting point of 164 to 165 °C.
`N#Cc1ccc(OS(N)(=O)=O)cc1` showed a melting point of 154 to 156 °C.
`COc1cc(NC(NC2CCC2)=C(C#N)S(=O)(=O)c2ccc(Cl)cc2)cc(OC)c1` gave a melting point of 164 °C.
Work on `CCOC(=O)N1N=C(c2ccc(N)cc2)c2cc(Cl)c(Cl)cc2CC1C` (stereo unspecified) yielded a melting point of 190 to 192 °C.
`CCOC(=O)[C@H]1C=C[C@H](c2ccccc2)n2c(=O)n(CCCl)c(=O)n21` (relative stereo) gave a melting point of 117 to 119 °C.
`O=C(Nc1ccc2cc(CN3CCCC3)ccc2c1)c1ccc(-c2ccccc2)nc1` gave a melting point of 212 to 214 °C.
`COC(=O)Cn1c(C(=O)NC(N)=S)cc2cc(C)cc(C)c21` showed a melting point of 226 to 231 °C.
In the case of `N#Cc1ccc(Oc2ccccc2NC(=O)c2cccc([N+](=O)[O-])c2)cc1C#N`, the melting point was 176 to 178 °C.
Molecule `N#CC1(c2ccccc2)CCC2(CC1)OCCO2` has a melting point of 108 to 110 °C.
`N#Cc1ccc(OCCO)c(C(N)=O)c1` gave a melting point of 144 to 146 °C.
In the case of `O=C1Nc2ccccc2N2C1CCC2c1cccc(Cl)c1` (stereo unspecified), the melting point was 210 °C.
Work on `CCCc1c(OCCCCCOc2cccc3cc(C(=O)O)oc23)ccc2c1OCCC2=O` yielded a melting point of 79.5 to 81 °C.
In the case of `COc1cc(C(=O)CBr)ccc1OC(C)=O`, the melting point was 82 °C.
Molecule `COc1cc2c(=O)c(-c3ccc(O)cc3)coc2cc1O` has a melting point of 336 to 338 °C.
`CC(C)(C)OC(=O)[C@H](CC1CC1)N1C(=O)NC(C(F)(F)F)(C(F)(F)F)C1=O` showed a melting point of 76 to 77 °C.
Molecule `O=C(C1CCCc2c1c1ccccc1n2Cc1ccccc1)N1CCCC1` (stereo unspecified) has a melting point of 232 to 234 °C.
Work on `FC(F)(F)c1cccc2c1SSSSS2` yielded a melting point of 55 to 60 °C.
With `CNc1nc(S(=O)(=O)Nc2c(Cl)cccc2Cl)n[nH]1` the melting point was 285 to 287 °C.
Molecule `N#Cc1ccc(Nn2cnnc2)cc1-c1ccccc1` has a melting point of 181 to 182 °C.
For `CS(=O)(=O)c1cc(C(F)(F)F)ccc1C(=O)CC(=O)C1CC1`, the melting point was 123 to 125 °C.
For `COc1ccc(CCN(C)CCc2ccc(NC(=O)c3cccc4c(=O)c5ccccc5[nH]c34)cc2)cc1`, the melting point was 179 °C.
For `Fc1ccc(-n2c3c(c4cc(F)ccc42)CN(CCc2ccc4ccccc4n2)CC3)cc1`, the melting point was 201 to 203 °C.
For `O=C(OCCN1CCN(CCN2CCOCC2)CC1)c1ccc(O)cc1`, the melting point was 176 to 178 °C.
In the case of `CCCCCCCCCCCCCCCCCCSC(C)CC#N` (stereo unspecified), the melting point was 38 °C.
Molecule `Cc1cc(=O)n(C2CCCCC2)c(=O)n1C` has a melting point of 135 to 137 °C.
Molecule `O=C(NCC(=O)N1[C@@H](c2ccccc2)CC[C@H]1c1ccccc1)Nc1cccc(C(=O)O)c1` has a melting point of 255 °C.
For `COc1cc2c(Nc3ccc(Cl)cc3F)ncnc2cc1OCCOc1ccncc1`, the melting point was 200 to 202 °C.
`Nc1cccc(F)c1O` gave a melting point of 115 °C.
For `COc1cc(CC(C#N)=CNc2ccccc2)cc(OC)c1NC=O`, the melting point was 186 to 187 °C.
`O=Nc1c(-c2ccccc2)nc2sccn12` showed a melting point of 175 to 177 °C.
`CCOc1cc2nc(S(C)(=O)=O)[nH]c2cc1OCC` showed a melting point of 182 to 184 °C.
For `Nn1c(-c2cncc(Cl)c2)cc2ccccc21`, the melting point was 154 to 156 °C.
Work on `CC(=O)NCCc1ccc(NC(=O)C=C2CC(C(=O)O)Nc3cc(Cl)cc(Cl)c32)cc1` (racemic) yielded a melting point of 254 to 256 °C.
In the case of `CCc1nc2c3c(c(C(=O)N(C)C)c(-c4ccccc4)c2n1C)CCCO3`, the melting point was 195 to 197 °C.
`O=C1CCC(c2ccc(Br)cc2)N1` (stereo unspecified) gave a melting point of 142 °C.
Work on `COc1cccc(C(=C/C=C/C(=O)Oc2ccc([N+](=O)[O-])cc2)c2cccc(OC)c2)c1` yielded a melting point of 95 to 97 °C.
`CCCCOCCOc1ccc(-c2ccc(-n3cccn3)c(C=C(C)C(=O)O)c2)cc1` gave a melting point of 132 to 134 °C.
`c1ccc(-c2noc3ccccc23)c(CNCc2ccccc2-c2noc3ccccc23)c1` gave a melting point of 138 °C.
`CNC(=O)/C=C1\CCc2c(Cl)cc(F)cc21` gave a melting point of 173 to 175 °C.
In the case of `CCc1ccc(C(=O)COc2ccc(CC3SC(=O)NC3=O)cc2)nc1` (stereo unspecified), the melting point was 148 to 149 °C.
`CCCCC[C@H]1CC[C@H](c2ccc(C#C[Si](C)(C)C)nn2)CC1` showed a melting point of 118 to 119 °C.
In the case of `CC(CN1CCC(Nn2cccc2)CC1)c1ccccc1` (stereo unspecified), the melting point was 72 to 74 °C.
In the case of `COc1nccc2c(=O)n(C)c(N3C=CC(OC4CCN(C5CCC5)CC4)=NC3)nc12`, the melting point was 199 to 200 °C.
`CCN(C(C)=O)c1cccc(-c2ccc3nncn3n2)c1` showed a melting point of 122 to 127 °C.
Molecule `Cc1ccc(S(=O)(=O)OCC2COc3ccc(N)c(C=NO)c3O2)cc1` (stereo unspecified) has a melting point of 164 to 166 °C.
For `CC(C)c1nn(-c2ccc(C(F)(F)F)cn2)cc1CCCOc1cc(CCC(=O)O)n(-c2ccccc2)n1`, the melting point was 139 to 140 °C.
`CC1Cc2cc3c(cc2C(c2ccc([N+](=O)[O-])cc2)=NN1C(N)=NO)OCO3` (stereo unspecified) showed a melting point of 138 to 145 °C.
Molecule `N=C(N)NC(=O)c1cn(-c2ccc3ccccc3n2)c2ncccc12` has a melting point of 242 °C.
In the case of `C[C@@]12CCCN1[C@@H](C(Cl)(Cl)Cl)OC2=O`, the melting point was 55 to 57 °C.
`CCC(=O)N1CCC(NC(=O)Nc2ccc(Cl)cc2)CC1` showed a melting point of 225 to 226 °C.
`COc1ccccc1S(=O)(=O)c1ccc2c(c1)[C@@H](N1CCCC1=O)[C@H](O)C(C)(C)O2` (relative stereo) gave a melting point of 196 to 198 °C.
With `COc1ccc2c(c1)OCC(NC(=O)c1cc(Cl)ccc1OC)C2` (stereo unspecified) the melting point was 92 to 93 °C.
Work on `Cc1cnccc1CO` yielded a melting point of 77 to 80 °C.
`COc1ccc(S(=O)(=O)Nc2ccccc2-c2ccc(F)cc2C(C)O)cc1` (stereo unspecified) gave a melting point of 137 to 138 °C.
Work on `CC(C)(C)OC(=O)N1CCC(C=C(Br)Br)CC1` yielded a melting point of 82.3 to 83.9 °C.
`O=C(NCCO)c1ccc(-c2ccccn2)cc1` showed a melting point of 86 to 88 °C.
For `CCCCNc1ccc2nn(CCC)c(=O)n2n1`, the melting point was 183 to 185 °C.
`CC(C)C(O)c1ccc2oc3ncccc3c(=O)c2c1` (stereo unspecified) showed a melting point of 160 °C.
Work on `CC(C)(C)OC(=O)N1CCC2(CC1)CC(c1ccc(C(C)(C)C)cc1)=NO2` yielded a melting point of 172 to 173 °C.
Molecule `CCOC(=O)[C@H](Cc1cccc(Oc2ccc3ccccc3c2)c1)NC(=O)C(F)(F)F` has a melting point of 78 to 80 °C.
Work on `O=C(O)COc1cc(F)c(-c2ccccc2)cc1C(=O)NCc1cccc([N+](=O)[O-])c1` yielded a melting point of 210 to 211 °C.
With `O=C(CCCC(=O)Oc1ccc(C(=O)OCc2ccccc2)cc1)Oc1ccc(C(=O)OCc2ccccc2)cc1` the melting point was 93 to 94 °C.
With `CC(C)Oc1cc(CCC(=O)NS(=O)(=O)C(C)C)n(Cc2ccc(Cl)cc2Cl)n1` the melting point was 135 to 136 °C.
